# ChEMBL document CHEMBL5046321, “Discovery by Virtual Screening of an Inhibitor of CDK5-Mediated PPARγ Phosphorylation” (ACS Med Chem Lett, 2022)
# Tests used:
# [1] = Metabolic stability in mouse Hepatocyte assessed as intrinsic clearance in 1 million cells/mL by LC-MS/MS analysis; type: ADME, cell-based; conditions: hepatocytes, read-out: CLH
# [2] = Oral bioavailability in lean C57BL/6J mouse at 100 umol/kg dosed daily for 7 days by HPLC-MS analysis; type: ADME, organism-based; conditions: in vivo, at 100 µmol/kg, time 7 day
# [3] = Aqueous solubility of the compound by LC-MS/MS analysis; type: physicochemical; conditions: buffer
# [4] = Metabolic stability in rat Hepatocyte assessed as intrinsic clearance in 1 million cells/mL measured upto 120 mins by LC-MS/MS analysis; type: ADME, cell-based; conditions: hepatocytes, read-out: CLH
# [5] = Metabolic stability in human liver microsomes assessed as intrinsic clearance measured upto 30 mins by LC-MS/MS analysis; type: ADME, Microsome; conditions: read-out: CLH
# [6] = Apparent permeability in human Caco-2 cells at 10 uM incubated for 45 to 120 mins by LC-MS/MS analysis; type: ADME, cell-based; conditions: time 45-120 min, read-out: permeability
# [7] = Lipophilicity, logD of compound at pH 7.4 by shake flask assay based LC-MS/MS analysis; type: physicochemical; conditions: buffer
# [8] = Cmax in lean C57BL/6J mouse at 100 umol/kg, po dosed daily for 7 days by HPLC-MS analysis; type: ADME, organism-based; set-up: route oral, dose 100 µmol/kg, time 7 day; conditions: in vivo
# [9] = Metabolic stability in human Hepatocyte assessed as intrinsic clearance in 1 million cells/mL measured upto 60 mins by LC-MS/MS analysis; type: ADME, cell-based; conditions: hepatocytes, read-out: CLH
# [10] = Half life in lean C57BL/6J mouse at 100 umol/kg, po dosed daily for 7 days by HPLC-MS analysis; type: ADME, organism-based; conditions: in vivo, dose 100 µmol/kg, time 7 day
compound,measurement,setting,value
O=C(O)c1nn(Cc2ccc(Cl)c(Cl)c2)c(=O)c2cc(Oc3ccccc3)ccc12,hepatocyte CLint,[1],10 µL/min/1e6 cells
same,bioavailability,[2],109%
same,solubility,[3],324 µM
same,hepatocyte CLint,[4],8.8 µL/min/1e6 cells
same,microsomal CLint,[5],< 4 µL/min/mg
same,Papp at 10 µM,[6],13 ×10⁻⁶ cm/s
same,logD,[7],2.3
same,Cmax,[8],167 µM
same,hepatocyte CLint,[9],15.2 µL/min/1e6 cells
same,half-life,[10],5 h
